Assay [1] has as its target Serotonin 1 receptors; 5-HT1B & 5-HT1D (Homo sapiens) (UniProt P28222+P28221). The assay is described as follows: Binding affinity ratio was evaluated (5-HT1B / 5-HT1D receptor). The assay is classed as protein assay.
In assay [2] the target is 5-hydroxytryptamine receptor 1B (Homo sapiens, UniProt P28222). Put plainly: Binding affinity was evaluated at the cloned human 5-hydroxytryptamine 1B receptor.
For assay [3], the target named is 5-hydroxytryptamine receptor 1D (Homo sapiens, UniProt P28221). Put plainly: Binding affinity was evaluated at the cloned human 5-hydroxytryptamine 1D receptor.
5-hydroxytryptamine receptor 1D, sequence (P28221 whole entry): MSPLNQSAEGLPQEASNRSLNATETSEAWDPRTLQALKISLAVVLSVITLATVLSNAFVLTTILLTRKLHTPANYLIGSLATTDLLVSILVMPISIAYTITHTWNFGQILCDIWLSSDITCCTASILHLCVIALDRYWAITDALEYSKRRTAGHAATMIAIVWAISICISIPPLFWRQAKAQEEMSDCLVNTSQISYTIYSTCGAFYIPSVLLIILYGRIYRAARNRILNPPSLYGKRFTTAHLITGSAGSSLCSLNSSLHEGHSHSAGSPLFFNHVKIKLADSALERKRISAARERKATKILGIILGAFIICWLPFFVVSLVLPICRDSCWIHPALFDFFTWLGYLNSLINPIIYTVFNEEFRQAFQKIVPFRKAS

5-hydroxytryptamine receptor 1B, sequence (P28222 whole entry): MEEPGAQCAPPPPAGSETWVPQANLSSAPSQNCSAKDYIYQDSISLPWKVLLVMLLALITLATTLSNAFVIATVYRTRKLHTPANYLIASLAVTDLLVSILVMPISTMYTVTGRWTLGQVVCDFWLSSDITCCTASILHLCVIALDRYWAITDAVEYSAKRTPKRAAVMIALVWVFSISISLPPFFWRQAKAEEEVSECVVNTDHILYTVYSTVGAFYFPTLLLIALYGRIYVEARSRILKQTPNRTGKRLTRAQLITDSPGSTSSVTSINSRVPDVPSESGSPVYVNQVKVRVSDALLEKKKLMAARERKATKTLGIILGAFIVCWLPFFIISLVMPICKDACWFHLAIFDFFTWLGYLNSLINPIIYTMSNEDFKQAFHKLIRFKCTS

Consider `O=C(Nc1cccc2ccccc12)N1CC=C(c2ccc3[nH]cc(CCN4CCCC4)c3c2)CC1`, for which the Ratio in assay [1] turned out to be 7.6. In addition, the Ki (as a rule, the equilibrium dissociation constant of an inhibitor or competing ligand from its target) in assay [2] worked out at 65 nM; in assay [3], 8.8 nM.

For `Cc1ccc(S(=O)(=O)N2CC=C(c3ccc4[nH]cc(CCN5CCCC5)c4c3)CC2)cc1`, the Ratio in assay [1] was 12. The Ki was 140 nM in assay [2] and 12 nM in assay [3].

For the compound `COc1ccc(S(=O)(=O)N2CC=C(c3ccc4[nH]cc(CCN5CCCC5)c4c3)CC2)cc1`, the Ratio in assay [1] turned out to be 13. For the same compound, the Ki amounted to 140 nM in assay [2] and 11 nM in assay [3].

As for `O=C(NC12CC3CC(CC(C3)C1)C2)N1CC=C(c2ccc3[nH]cc(CCN4CCCC4)c3c2)CC1`, the Ratio in assay [1] turned out to be 2.2. Besides, the inhibition constant Ki turned out to be 64 nM in assay [2] and 29 nM in assay [3].

Regarding `COc1ccc(NC(=O)N2CC=C(c3ccc4[nH]cc(CCN5CCCC5)c4c3)CC2)cc1`, the Ratio in assay [1] is 5.6. Besides, the figures for the inhibition constant Ki in assay [2] and in assay [3] were 44 nM and 7.8 nM, respectively.

Turning to `C1=C(c2ccc3[nH]cc(CCN4CCCC4)c3c2)CCNC1`, in assay [1], the Ratio worked out at 10. In addition, the Ki amounted to 760 nM in assay [2] and 74 nM in assay [3].

For `O=S(=O)(c1cccc2ccccc12)N1CC=C(c2ccc3[nH]cc(CCN4CCCC4)c3c2)CC1`, the Ratio in assay [1] was 15. In addition, the values for the Ki in assay [2] and in assay [3] were 410 nM and 27 nM, respectively.

In the case of `O=S(=O)(c1ccc(Cl)cc1)N1CC=C(c2ccc3[nH]cc(CCN4CCCC4)c3c2)CC1`, in assay [1], the Ratio is 12. The Ki in assay [2] came to 110 nM; in assay [3], 9.3 nM.

As to `CN(C)CCc1c[nH]c2ccc(C3=CCN(C)CC3)cc12`, the Ratio in assay [1] is 76.

For the compound `COc1ccc(NC(=S)N2CC=C(c3ccc4[nH]cc(CCN5CCCC5)c4c3)CC2)cc1`, in assay [1], the Ratio stood at 9.3. Besides, the Ki was 58 nM in assay [2] and 6.2 nM in assay [3].

As to `O=S(=O)(c1ccccc1)N1CC=C(c2ccc3[nH]cc(CCN4CCCC4)c3c2)CC1`, in assay [1], the Ratio was determined as 21. Besides, the Ki in assay [2] turned out to be 440 nM; in assay [3], 21 nM.

In the case of `S=C(NC12CC3CC(CC(C3)C1)C2)N1CC=C(c2ccc3[nH]cc(CCN4CCCC4)c3c2)CC1`, the Ratio in assay [1] is 5.9. The Ki in assay [2] came to 170 nM; in assay [3], 29 nM.

Values taken from ChEMBL document CHEMBL1148271, “3-(2-pyrrolidin-1-ylethyl)-5-(1,2,3,6-tetrahydropyridin-4-yl)-1H-indole derivatives as high affinity human 5-HT(1B/1D) ligands” (Bioorg Med Chem Lett, 2004).
